Patent publication US20200148682A1, “AKT ISOZYME-SPECIFIC COVALENT INHIBITORS DERIVED FROM REDOX-SIGNALING LIPIDS” (Cornell University, priority 2017, published 2020)
“Also recorded” adds a separate entry of the source.

Columns and labels:
Type in all cases: cell-based
Halo-Akt3 = molecular target: T1, Halo-Akt3 (Homo sapiens, UniProt Q9Y243); assay: In-gel fluorescence assay (Cy5-azide click) of covalent labeling in transfected HEK293T cells; details: 5 μM, 48 hours
T1 construct: expressed in transfected cells; host or cells: HEK293T
Method: HEK293T cells were transfected with Halo-Akt3 for 20 hours, then treated with the stated compound (5 μM, 48 hours). After this time, cells were lysed and the labeling was assayed by click chemistry. […] FIGS. 19A, 19C top gels are images showing in gel fluorescence, Cy5 channel. M is a molecular weight ladder. FIG. 19A, 19C lower panels are images of western blots (probing for Halo and actin, respectively) transferred from the same gel as the top image. […] FIGS. 19E-19F are graphs showing quantitation of in-gel Cy5 signal intensity, divided by the western blot signal for Halo.
Cell transfection with the designated plasmid encoding a given HaloTag-Akt fusion gene was carried out following the general procedure described in Example 12. After 20-24 hours, the transfection media were aspirated and replaced with fresh 2 mL rinse MEM medium supplemented with 3% FBS containing the indicated concentration of inhibitor or the equivalent final volume of DMSO and the plates were incubated for the indicated period of time. Cells were then harvested and lysed following the general procedure described in Examples 11 and 13. A portion of the lysate was made up to 25 μL final volume containing, in final concentrations, 5% t-BuOH, [2 mM TCEP, 1% SDS, 1 mM CuSO4, 0.1 mM Cu(TBTA), 10 μM Cy5 azide made up as a 10× stock in water] and 1.0 mg/mL lysate protein. The samples were incubated at 37° C. for 30 min and subsequently quenched with 8 μL of 4×Laemmeli dye containing 6% f ME. After an additional 5-min incubation at 37° C., samples were resolved on a 10% SDS-PAGE gel following the general procedure described in Example 14. After electrophoresis, the gel was rinsed three times with ddH2O and imaged on a Bio-Rad Chemi-doc-MP Imager. Where applicable, the gel was transferred to a PVDF membrane for western blot analysis following the general procedure described in Example 15.

BT-549 = assay: Cell viability assay (AlamarBlue); details: BT-549, 72 hours
Method: (§1) FIGS. 22A and 22D are graphs showing results of cytotoxicity assays for MDA-MB-468 (FIG. 22A) and BT-549 (FIG. 22D). […] Stated cell lines were plated in 96-well plates (3000 cells per well) in the presence of the stated concentration of inhibitor. After 72 hours, the number of viable cells was analyzed by AlamarBlue®. Proliferation inhibition 50% (PI50) values were calculated by fitting data to “PI50 equation” (EQN 4) (FIG. 22C). MDA cells were transfected with the stated siRNA using lipofectamine 3000 for 12 hours. […] After 72 hours, the number of viable cells was calculated using AlamarBlue®. FIG. 22F is a schematic showing AlamarBlue® viability assay. […] MDA-MB-468 cells were treated with the stated drugs for 72 hours at the PI60 and PI80. After this time, cells were harvested, fixed/permeabilized with ethanol and DNA content was stained using propidium iodide (visualized in the 488-3 channel). RNA was removed simultaneously using RNAse. After 30 min at room temperature, cells were analyzed by flow cytometry.
(§2) Indicated cells were plated in a 96-well plate containing the DMEM complete medium (see Example 11 for complete medium formulation, 100 μL per well) with a density of 3,000-5,000 cells per well for 12 hours followed by the addition of varying concentrations of inhibitors in rinse medium (100 μL). The cells were allowed to grow for 72 hours and 100 μL of the culture medium was removed from each well. This was followed by the addition of 10 μL AlamarBlue® reagent to each well. The fluorescence emission signals at 590 nm were read by Cytation 3 cell imaging multi-mode reader (BioTeK) using an excitation wavelength of 560 nm. Curve fitting and data analysis were performed using Prism software.

MDA-MB-468 = assay: Cell viability assay (AlamarBlue); details: MDA-MB-468, 72 hours
Method: as §1, §2

MDA-MB-468 cells = assay: Cell cycle analysis using flow cytometry
Method: MDA-MB-468 cells in a 6-well plate at 10% confluence were treated with HNE alkyne or the indicated drug at PI60 or PI80 concentration for 72 hours at 37° C. Negative control contained the equivalent volume of DMSO. Cells were grown and analyzed in separate batches of 1-2 replicates per condition that were run 2-3 times each. Each time the data points were normalized to the control set for each batch. At the indicated time post compound treatment, the culture medium was aspirated and the adherent cells were detached from the plate using trypsin, quenched with complete media, centrifuged (700 g), washed once with PBS, centrifuged (700 g), resuspended in PBS, then fixed with 70% ethanol for 24 hours. The cell suspensions were spun down at 1,000 g and washed with 500 μl of PBS twice. Each cell pellet was treated with 500 μL staining solution containing 50 μl of Ribonuclease A (≥70 Kunitz units/mg proteins, R6513, Sigma-Aldrich) and 50 μl of a propidium iodide (1 mg/ml, Sigma-Aldrich) solution in PBS with 1% BSA. The resulting solution was incubated with agitation at room temperature for 30 min in the dark.
The stained cells were assayed on a BD LSR II flow cytometer. FlowJo® was used to deconvolute the signals. Cells were grouped first by forward and side scatter (area), then that group was regrouped using forward (width) versus forward (area) scatter to give single cells. Cells were than analyzed using cellular DNA content to quantitate the percentage of cells in the respective phases (G1, S, G2/M and sub-G0) of the cell cycle.

[1] = test system: Akt1, Akt2, Akt3 isoforms; assay: Akt isoform selectivity of covalent inhibition (in-gel fluorescence, transfected HEK293T cells)
Text: Overexpressed Akt proteins were labeled with Cy5-small-molecule-fluorophore-conjugated azide (Cy5-azide) using standard click chemistry. FIG. 16A top gel is an image showing Cy5 channel (used to evaluate the extent of covalent binding on each Akt protein). The lysate from non-transfected HEK 293T cells was also used for comparison. M, molecular weight ladder. […] FIG. 16B top gel is an image showing Cy5 channel. M is a molecular weight ladder. FIG. 16B bottom is an image showing western blots probing Halo and actin, respectively. […] Error bars designate s.d. […] Normalized fluorescent signal (NFS) was calculated from the following equation: NFS=[(Cy5(X μM drug)−Cy5(No transfection))/Halo(X μM drug)]÷[(Cy5(no drug)−Cy5(No transfection))/Halo(no drug)]. The relative fluorescent signal (RFS) is calculated from the following equation: RFS=(Cy5(X μM drug)/Halo(X μM drug)) (Cy5(no drug)/Halo(no drug))
Cell transfection with the designated plasmid encoding a given HaloTag-Akt fusion gene was carried out following the general procedure described in Example 12. After 20-24 hours, the transfection media were aspirated and replaced with fresh 2 mL rinse MEM medium supplemented with 3% FBS containing the indicated concentration of inhibitor or the equivalent final volume of DMSO and the plates were incubated for the indicated period of time. […]

T1 sequence (Q9Y243 whole entry): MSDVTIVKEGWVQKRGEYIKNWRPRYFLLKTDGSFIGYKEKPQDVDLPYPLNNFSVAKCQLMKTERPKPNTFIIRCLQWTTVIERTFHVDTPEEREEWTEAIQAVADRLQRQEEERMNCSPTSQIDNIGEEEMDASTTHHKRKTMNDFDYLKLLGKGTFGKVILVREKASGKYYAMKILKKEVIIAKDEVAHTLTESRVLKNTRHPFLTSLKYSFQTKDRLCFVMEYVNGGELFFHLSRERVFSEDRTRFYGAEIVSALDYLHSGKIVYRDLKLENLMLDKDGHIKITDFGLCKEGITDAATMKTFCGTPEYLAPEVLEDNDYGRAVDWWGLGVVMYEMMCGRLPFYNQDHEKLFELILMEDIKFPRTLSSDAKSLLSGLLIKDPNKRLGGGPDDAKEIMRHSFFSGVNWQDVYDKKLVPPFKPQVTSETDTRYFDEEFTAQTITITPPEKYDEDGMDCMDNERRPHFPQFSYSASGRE

## C#CCCCC(O)CCC(=O)NC1(c2ccc(-c3nc4ccn5c(=O)[nH]nc5c4cc3-c3ccccc3)cc2)CCC1.Cl (stereo not shown) [MK-HNA, 8-(4-(1-(4-Hydroxynon-8-ynamido)cyclobutyl)phenyl)-3-oxo-9-phenyl-2,3-dihydro-[1,2,4]triazolo[3,4-f][1,6]naphthyridin-7-ium Chloride]
Halo-Akt3
  covalent labeling of Halo-Akt3: no covalent labeling was observed

## C#CCCCC/C=C/C(=O)NC1(c2ccc(-c3nc4ccn5c(=O)[nH]nc5c4cc3-c3ccccc3)cc2)CCC1 [MK-dHNE, (E)-8-(4-(1-(Non-2-en-8-ynamido)cyclobutyl)phenyl)-3-oxo-9-phenyl-2,3-dihydro-[1,2,4]triazolo[3,4-f][1,6]naphthyridin-7-ium Chloride]
BT-549
  toxicity / potency relative to MK-2206: less effective than MK-2206
MDA-MB-468
  toxicity / potency relative to MK-2206: less effective than MK-2206
Halo-Akt3
  covalent labeling of Halo-Akt3: able to elicit covalent labeling

## CCn1c(-c2nonc2N)nc2c(C#CC(C)(C)O)ncc(OC[C@H]3CCCNC3)c21 [GSK-69063]
MDA-MB-468 cells; drug at PI80, 72 hours
  G1/G0 (percentage of cells in phase): 47.7
  G2/M (percentage of cells in phase): 30.0
  S (percentage of cells in phase): 14.3
  subG0 (percentage of cells in phase): 0.92

## CCCCCC(O)/C=C/C=O (stereo not shown) [HNE, hydroxynonenal]
MDA-MB-468 cells; 72 hours
  effect on cell cycle: S-phase arrest; also recorded: loss of G1

## CC(C)NC[C@@H](C(=O)N1CCN(c2ncnc3c2[C@H](C)C[C@H]3O)CC1)c1ccc(Cl)cc1 [GDC-0068]
MDA-MB-468 cells; drug at PI60, 72 hours
  G1/G0 (percentage of cells in phase): 52.6
  G2/M (percentage of cells in phase): 28.3
  S (percentage of cells in phase): 12.1
  subG0 (percentage of cells in phase): 1.64

## C#CCCCCC(O)C(=C)C(=O)NC1(c2ccc(-c3nc4ccn5c(=O)[nH]nc5c4cc3-c3ccccc3)cc2)CCC1.Cl (stereo not shown) [MK-G, 8-(4-(1-(3-Hydroxy-2-methylenenon-8-ynamido)cyclobutyl)phenyl)-3-oxo-9-phenyl-2,3-dihydro-[1,2,4]triazolo[3,4-f][1,6]naphthyridin-7-ium Chloride]
[1]
  Akt isozyme selectivity of inhibition: no isozyme-selective inhibition

## C#CCCCC(O)C=CC=O (stereo not shown) [HNE alkyne]
MDA-MB-468 cells; drug at PI60, 72 hours
  G1/G0 (percentage of cells in phase): 40.0
  G2/M (percentage of cells in phase): 30.8
  S (percentage of cells in phase): 26.3
  subG0 (percentage of cells in phase): 3.7
MDA-MB-468 cells; drug at PI80, 72 hours
  G1/G0 (percentage of cells in phase): 28.5
  G2/M (percentage of cells in phase): 22
  S (percentage of cells in phase): 31.3
  subG0 (percentage of cells in phase): 18.2
